Assays:
[1] = system: Yersinia pestis; assay: (§1) Antibacterial activity against Yersinia pestis Colorado 92 infected in African green monkey B6436 model assessed as bacterial burden in kidney at 25 mg/kg, iv administered within 6 hrs post onset of sustained fever as 30 mins infusion for 5 days (reference value: 7.1 10^7CFU/g); format: functional, organism-based; conditions: CO92
[2] = system: African green monkey; assay: Toxicity in African green monkey 8067 model infected with Yersinia pestis Colorado 92 assessed as blood urea nitrogen level at 25 mg/kg, iv administered within 6 hrs post onset of sustained fever as 30 mins infusion for 10 days (reference value: 13 mg/dl); format: organism-based; conditions: chlorocebus sabaeus, in vivo
[3] = system: African green monkey; assay: Toxicity in African green monkey 7929 model infected with Yersinia pestis Colorado 92 assessed as serum gamma glutamyl-transferase level at 25 mg/kg, iv administered within 6 hrs post onset of sustained fever as 30 mins infusion for 10 days (reference value: 44 IU/L); format: organism-based; conditions: chlorocebus sabaeus, in vivo
[4] = system: African green monkey; assay: Toxicity in African green monkey 7929 model infected with Yersinia pestis Colorado 92 assessed as blood urea nitrogen level at 25 mg/kg, iv administered within 6 hrs post onset of sustained fever as 30 mins infusion for 10 days (reference value: 15 mg/dl); format: organism-based; conditions: chlorocebus sabaeus, in vivo
[5] = system: Yersinia pestis; assay: as §1, with “C2083” for “B6436”, “tracheobronchial lymph nodes” for “kidney”, “12.5” for “25”, “7.7 10^9CFU/g)” for “7.1 10^7CFU/g)”; format: functional, CO92, Lymph node
[6] = system: African green monkey; assay: Toxicity in African green monkey B6428 model infected with Yersinia pestis Colorado 92 assessed as serum gamma glutamyl-transferase level at 25 mg/kg, iv administered within 6 hrs post onset of sustained fever as 30 mins infusion for 10 days (reference value: 31 IU/L); format: organism-based; conditions: chlorocebus sabaeus, in vivo
[7] = Clearance in African green monkey blood at 25 mg/kg administered as iv infusion twice daily for 7 consecutive days measured on day 7 by LC-MS/MS analysis; format: ADME, organism-based; conditions: chlorocebus aethiops
[8] = system: African green monkey; assay: Toxicity in African green monkey B6428 model infected with Yersinia pestis Colorado 92 assessed as blood urea nitrogen level at 25 mg/kg, iv administered within 6 hrs post onset of sustained fever as 30 mins infusion for 10 days (reference value: 16 mg/dl); format: organism-based; conditions: chlorocebus sabaeus, in vivo
[9] = AUC (0 to 24 hrs) in African green monkey blood at 35 mg/kg administered as iv infusion twice daily for 7 consecutive days measured on day 7 by LC-MS/MS analysis; format: ADME, organism-based; set-up: time < 24 hr, dose 35 mg/kg, route intravenous; conditions: chlorocebus aethiops
[10] = Toxicity in African green monkey B6408 model infected with Yersinia pestis Colorado 92 assessed as total white blood cell count at 25 mg/kg, iv administered within 6 hrs post onset of sustained fever as 30 mins infusion for 10 days (reference value: 6.9 10^3/microL); format: organism-based; conditions: chlorocebus aethiops, in vivo
[11] = system: Yersinia pestis; assay: Antibacterial activity against Yersinia pestis Colorado 92 infected in African green monkey C2149 model assessed as bacterial burden in liver at 6.25 mg/kg, iv administered within 6 hrs post onset of sustained fever as 30 mins infusion for 5 days (reference value: 5.2 10^8CFU/g); format: functional, CO92
[12] = system: Yersinia pestis; assay: Antibacterial activity against Yersinia pestis Colorado 92 infected in African green monkey 8047 model assessed as bacterial burden in lung at 6.25 mg/kg, iv administered within 6 hrs post onset of sustained fever as 30 mins infusion for 10 days (reference value: 7.7 10^8CFU/g); format: functional, CO92
[13] = system: African green monkey; assay: Toxicity in African green monkey 7972 model infected with Yersinia pestis Colorado 92 assessed as serum gamma glutamyl-transferase level at 25 mg/kg, iv administered within 6 hrs post onset of sustained fever as 30 mins infusion for 10 days (reference value: 46 IU/L); format: organism-based; conditions: chlorocebus sabaeus, in vivo
[14] = system: Yersinia pestis; assay: Antibacterial activity against Yersinia pestis Colorado 92 infected in African green monkey B6127 model assessed as bacterial burden in spleen at 25 mg/kg, iv administered within 6 hrs post onset of sustained fever as 30 mins infusion for 10 days (reference value: 1.6 10^9CFU/g); format: functional, organism-based; conditions: CO92
[15] = system: African green monkey; assay: Toxicity in African green monkey 7972 model infected with Yersinia pestis Colorado 92 assessed as serum creatinine level at 25 mg/kg, iv administered within 6 hrs post onset of sustained fever as 30 mins infusion for 10 days (reference value: 0.8 mg/dl); format: organism-based; conditions: chlorocebus sabaeus, in vivo
[16] = system: Yersinia pestis; assay: Antibacterial activity against Yersinia pestis Colorado 92 infected in African green monkey B6436 model assessed as bacterial burden in lung at 25 mg/kg, iv administered within 6 hrs post onset of sustained fever as 30 mins infusion for 5 days (reference value: 7.7 10^8CFU/g); format: functional, CO92
[17] = Volume of distribution at steady state in African green monkey blood at 35 mg/kg administered as iv infusion twice daily for 7 consecutive days measured on day 7 by LC-MS/MS analysis; format: ADME, organism-based; conditions: chlorocebus aethiops, read-out: Vdss
[18] = system: Yersinia pestis; assay: Antibacterial activity against Yersinia pestis Colorado 92 infected in African green monkey B6889 model assessed as bacterial burden in spleen at 6.25 mg/kg, iv administered within 6 hrs post onset of sustained fever as 30 mins infusion for 5 days (reference value: 1.6 10^9CFU/g); format: functional, CO92
[19] = system: Yersinia pestis; assay: Antibacterial activity against Yersinia pestis Colorado 92 infected in African green monkey B6127 model assessed as bacterial burden in brain at 25 mg/kg, iv administered within 6 hrs post onset of sustained fever as 30 mins infusion for 10 days (reference value: 1.9 10^6CFU/g); format: functional, CO92
[20] = system: African green monkey; assay: Toxicity in African green monkey B6127 model infected with Yersinia pestis Colorado 92 assessed as dehydration at 25 mg/kg, iv administered within 6 hrs post onset of sustained fever as 30 mins infusion for 10 days; format: organism-based; conditions: chlorocebus sabaeus, in vivo
[21] = system: Yersinia pestis; assay: Antibacterial activity against Yersinia pestis Colorado 92 infected in African green monkey C2083 model assessed as bacterial burden in spleen at 12.5 mg/kg, iv administered within 6 hrs post onset of sustained fever as 30 mins infusion for 5 days (reference value: 1.6 10^9CFU/g); format: functional, CO92
[22] = system: Yersinia pestis; assay: Antibacterial activity against Yersinia pestis Colorado 92 infected in African green monkey B6436 model assessed as bacterial burden in tracheobronchial lymph nodes at 25 mg/kg, iv administered within 6 hrs post onset of sustained fever as 30 mins infusion for 5 days (reference value: 7.7 10^9CFU/g); format: functional, CO92, Lymph node
[23] = Volume of distribution at steady state in African green monkey blood at 25 mg/kg administered as iv infusion twice daily for 7 consecutive days measured on day 7 by LC-MS/MS analysis; format: ADME, organism-based; conditions: chlorocebus aethiops, read-out: Vdss
[24] = Cmax in African green monkey blood at 35 mg/kg administered as iv infusion twice daily for 7 consecutive days measured on day 1 by LC-MS/MS analysis; format: ADME, organism-based; set-up: dose 35 mg/kg, route intravenous; conditions: chlorocebus aethiops
[25] = system: Yersinia pestis; assay: Antibacterial activity against Yersinia pestis Colorado 92 infected in African green monkey C2083 model assessed as bacterial burden in brain at 12.5 mg/kg, iv administered within 6 hrs post onset of sustained fever as 30 mins infusion for 5 days (reference value: 1.9 10^6CFU/g); format: functional, CO92
[26] = system: Yersinia pestis; assay: Antibacterial activity against Yersinia pestis Colorado 92 infected in African green monkey B6127 model assessed as bacterial burden in liver at 25 mg/kg, iv administered within 6 hrs post onset of sustained fever as 30 mins infusion for 10 days (reference value: 5.2 10^8CFU/g); format: functional, CO92
[27] = system: African green monkey; assay: Toxicity in African green monkey 7643 model infected with Yersinia pestis Colorado 92 assessed as blood urea nitrogen level at 25 mg/kg, iv administered within 6 hrs post onset of sustained fever as 30 mins infusion for 10 days (reference value: 16 mg/dl); format: organism-based; conditions: chlorocebus sabaeus, in vivo

## CN[C@@H]1[C@@H](O)[C@@H](O[C@@H]2[C@@H](O)[C@H](O[C@H]3OC(CNCCO)=CC[C@H]3N)[C@@H](N)C[C@H]2NC(=O)[C@@H](O)CCN)OC[C@]1(C)O [PLAZOMICIN]
[1]
  Activity: Below limit of detection
[2]
  Activity: 21 mg/dL
[3]
  Activity: 16 IU/L
[4]
  Activity: 17 mg/dL
[5]
  Activity: 8 ×10⁹ CFU/g
[6]
  Activity: 27 IU/L
[7]
  clearance: 1.83 mL/min/kg
[8]
  Activity: 26 mg/dL
[9]
  AUC at 24 h: 319 µg·h/mL
[10]
  Activity: 5.5 ×10³ /uL
[11]
  Activity: 1 ×10⁶ CFU/g
[12]
  Activity: 6.6 ×10⁹ CFU/g
[13]
  Activity: 38 IU/L
[14]
  Activity: Below limit of detection
[15]
  Activity: 0.7 mg/dL
[16]
  Activity: 44 CFU/g
[17]
  Vd: 0.31 L/kg
[18]
  Activity: 6.2 ×10⁶ CFU/g
[19]
  Activity: 39 CFU/g
[20]
  Activity: Toxic
[21]
  Activity: 1.5 ×10⁷ CFU/g
[22]
  Activity: 30 CFU/g
[23]
  Vd: 0.36 L/kg
[24]
  Cmax: 176 µg/mL
[25]
  Activity: 2.2 ×10⁶ CFU/g
[26]
  Activity: 44 CFU/g
[27]
  Activity: 19 mg/dL
